These are literature values, as cited in patent EP3173487A1 (priority 2015, dated 2017).

Molecules are shown by their SMILES.

This data set has as its system haloalkane dehalogenases. The following applies: pH 8.6.
With `ClCC(Cl)CCl` [1,2,3-trichloropropane], the “classification as substrate of the analyzed haloalkane dehalogenases” value is given as “poor”. Regarding `BrCCBr` [1,2-dibromoethane], the “classification as substrate of the analyzed haloalkane dehalogenases” value is given as “universal”. On to `CC(Cl)CCl` (stereo not drawn) [1,2-dichloropropane], for which the “classification as substrate of the analyzed haloalkane dehalogenases” value is “poor”. For `CCCCBr` [1-bromobutane], the “classification as substrate of the analyzed haloalkane dehalogenases” value was “universal”.

Consider `CCCCI` [1-iodobutane], for which the “classification as substrate of the analyzed haloalkane dehalogenases” value was “universal”. As to `CCCI` [1-iodopropane], the “classification as substrate of the analyzed haloalkane dehalogenases” value is on record as “universal”. As to `N#CCCCBr` [4-bromobutanenitrile], the “classification as substrate of the analyzed haloalkane dehalogenases” value is listed as “universal”. For the compound `BrCC1CCCCC1` [(bromomethyl)cyclohexane], the “classification as substrate of the analyzed haloalkane dehalogenases” value was “poor”. As for `ClC1CCCCC1` [chlorocyclohexane], the “classification as substrate of the analyzed haloalkane dehalogenases” value is recorded as “poor”.
